Source: patent publication US5171851A, “Imidazole substituted benzoxazine or benzothiazine derivatives” (Dong-A Pharm. Co., Ltd., priority 1990, dated 1992)
Where two headings read alike, the source gives them in different places.

Columns and labels:
[1] = test system: blood perfused papillary muscle preparation; assay: contractile power on blood perfused papillary muscle preparation; set-up: species or system dog; settings: Canis lupus familiaris, read-out: change of contractivity (%); for activation at 0.001 mg: dose 1.0 ug; for activation at 0.01 mg: dose 10.0 ug
Procedure: Determination of contractile power on blood perfused papillary muscle preparation:
Dogs of either sex weighing 7-12 kg were anesthetized with sodium pentobarbital (30 mg/kg, i.v.). Heparin of 1000 unit/kg was administered to each animal intravenously. The animals were exsanguinated and heart was removed. The preparation was perfused through the cannulated anterior septal artery (ASA) with arterial blood from a donor dog at constant pressure of about […]. Donor dogs were anesthetized with sodium pentobarbital (30 mg/kg, i.v.). Heparin of 1000 units/kg was administered intravenously. The papillary muscle was stimulated with rectangular pulses of 5- ms duration and about 1.5 times the threshold voltage at a rate of 120 stimuli/min through bipolar electrodes. Resting tension was made to 2 g. The developed tension of papillary muscle was determined by Isometric tresducer. Detailed method was reporated by Matsumoto in Am J. Physiol. 218, 1459-1463 (1970). Test compound at the doses of 10-30 ul was injected in flowing blood in the gum tube connected to catheter. The inotropic effect of the test compounds was shown by change percent of developed tension compared with that prior to the administration of the test compounds.

anesthetized cats = assay: cardiotonic effect on anesthetized cats; assay type: in vivo, cat; settings: Felis catus; for change in vivo at 0.01 mg/kg: 0.01 mg/Kg iv; for change in vivo at 0.03 mg/kg: 0.03 mg/Kg iv; for change in vivo at 0.1 mg/kg: 0.1 mg/Kg iv
Procedure: Determination of cardiotonic effect on anesthetized cats: Male cats weighing about 3 kg were anesthetized with sodium pentobarbital (30 mg/kg, i.p.). The same anesthetic was infused intravenously at the does of 4 mg/kg/hr in order to maintain the anesthetic state and mechanically ventilated through a cuffed endotracheal tube, chest was opened by a midline incision and a catheter for measuring left ventricular pressure was inserted through apex into left ventricle and the left ventricular pressure was measured. LVdP/dt was determined by use of diffentiator from the left ventricular pressure. Systemic blood pressure was measured by the left femoral artery by a pressure transducer and heart rate was measured by a cardiotachometer triggered by blood pressure pulses. Test compound was injected into the femoral vein by use of cannule. After completion of the surgical procedures, the cats were allowed to recover about 30 minutes before drug administration. These compounds were dissolved in 0.9% physiological saline and diluted with saline. Solvent such as DMSO or DMF was also used, if necessary. Test compound of 0.1 ml/kg was used. Detailed method was reporated in J. Med. Chem. 30. 1279-87(1987).

Spraque-Dawley rats = assay: acute toxicity test in Spraque-Dawley rats; settings: rat, in vivo, po, 300 mg/kg
Procedure: Acute toxicity test of 6-(4-methylimidazol-1-yl)-(4H)-3,1-benzoxazin-2-one was conducted in Spraque-Dawley rats. The test compound was suspended in 5% arabic gum and was administered orally to six rats at a dose of 300 mg/kg body weight. […] Accordingly, LD 50 of the compound is 300 mg/kg or more.

[2] = test system: blood-perfused sino-atrial preparation; assay: sinus rate on blood-perfused sino-atrial preparation; set-up: species or system dog; settings: for activation at 0.003 mg: dose 3.0 ug
Procedure: Determination of sinus rate on blood-perfused sino-atrial preparation: Mongrel gods of either sex weighing 7-12 kg were anesthetized with sodium pentoba rbital (30 mg/kg i.v.). Heparin ob 1000 unit/kg was administered to each animal intravenously and the animals were exsanguinated. Heart was removed and put in Krebs-Henseleit solution. Catheter was inserted into blood vessel between right coronary artery and SA nodes. Right atrium and catheter were together removed. Blood supplied from carotid artery of donor dog of either sex weighing 15-25 kg, was supplied to blood vessel cather from right coronary artery and SA node under constant blood pressure of 100 mmHG by use of Peristaltic pump. The resting tension of right atrial muscle was made to 2g. The sinus rate triggered by spontaneous contraction of atrial muscle was determined on Narco physiograph Narcotrace 4). Detailed method was reported by S. Chiba, et al. in Japanese Pharmacology 25, 433-439(1975). Doses of test compounds were injected into flowing blood in gum tube connected to the near part of the catheter inserted into right coronary artery. The effects on sinus rate were shown as percent compared with the sinus ratio prior to the injection of the test compounds.

ICR mouse = assay: acute toxicity test in ICR mouse; assay type: in vivo; settings: intravenous, 30 mg/kg, five mice
Procedure: Acute toxicity test of 6-(4-methylimidazol-1-yl)-(4H)-3,1-benzothiazin-2-one was conducted in ICR mouse. The test compound was dissolved in a mixed solvent of saline and DMF (2:1) and was administered intravenously to five mice at a dose of 30 mg/kg body weight. […] Accordingly, LD50 of the compound is 30 mg/kg or more.

BALB/C mice = assay: acute toxicity test in BALB/C mice; assay type: in vivo, mouse; settings: oral, 200 mg/kg, five mice
Procedure: Acute toxicity test in mice:
Acute toxicity test of 6-(4-methylimidazol-1-yl)-(4H)-3,1-benzothiazine-2-thione was conducted in BALB/C mice. The test compound was suspended in 5% arabic gum solution and administered orally to five mice at a dose of 200 mg/kg body weight by gastric tubing. […] Accordingly, LD50 of the compound is 200 mg/kg or more.

[3] = Canis lupus familiaris, read-out: change of sinus rate (%)

SMILES	activation at 0.001 mg [1]	activation at 0.01 mg [1]	change in vivo at 0.01 mg/kg (anesthetized cats; read-out: HR (%))	change in vivo at 0.01 mg/kg (anesthetized cats; read-out: LV dp/dt (%))	change in vivo at 0.01 mg/kg (anesthetized cats; read-out: LVP (%))	change in vivo at 0.01 mg/kg (anesthetized cats; read-out: SBP (%))	change in vivo at 0.01 mg/kg (anesthetized cats; read-out: dBP)	change in vivo at 0.01 mg/kg (anesthetized cats; read-out: mBP (%))	change in vivo at 0.03 mg/kg (anesthetized cats; read-out: HR (%))	change in vivo at 0.03 mg/kg (anesthetized cats; read-out: LV dp/dt (%))	change in vivo at 0.03 mg/kg (anesthetized cats; read-out: LVP (%))	change in vivo at 0.03 mg/kg (anesthetized cats; read-out: SBP (%))	change in vivo at 0.03 mg/kg (anesthetized cats; read-out: dBP)	change in vivo at 0.03 mg/kg (anesthetized cats; read-out: mBP (%))	change in vivo at 0.1 mg/kg (anesthetized cats; read-out: HR (%))	change in vivo at 0.1 mg/kg (anesthetized cats; read-out: LV dp/dt (%))	change in vivo at 0.1 mg/kg (anesthetized cats; read-out: LVP (%))	change in vivo at 0.1 mg/kg (anesthetized cats; read-out: SBP (%))	change in vivo at 0.1 mg/kg (anesthetized cats; read-out: dBP)	change in vivo at 0.1 mg/kg (anesthetized cats; read-out: mBP (%))	other results
Cc1cn(-c2ccc3c(c2)COC(=O)N3)cn1 [6-(4-methylimidazol-1-yl)(4H)-3,1-benzoxazin-2-one]	2.94%	30.4%	1.25%	29.6%	7.69%	-4.55%	-7.14%	-6%	1.88%	85.2%	23.1%	-9.12%	-10.7%	-10.2%	6.25%	113%	30.8%	-15.9%	-14.3%	-15%	activation at 0.003 mg ([1]; dose 3.0 ug): 13%; dead animals (Spraque-Dawley rats): no dead animal was found; activation at 0.001 mg ([2]; Canis lupus familiaris, dose 1.0 ug, read-out: change of sinus rate (%)): 0%; activation at 0.003 mg [2, 3]: 2.52%; activation at 0.01 mg ([2]; Canis lupus familiaris, dose 10.0 ug, read-out: change of sinus rate (%)): 5.04%; change of sinus rate (%) ([2]; at the ED 30 dose): +5.17%
Cc1cn(-c2ccc3c(c2)CSC(=O)N3)cn1 [6-(4-methylimidazol-1-yl)-(4H)-3,1-benzothiazin-2-one]	0%	20.5%	0%	14.8%	0%	-4%	-8.5%	-9.1%	0.6%	33.3%	0%	-10%	-14.3%	-12.5%	4.5%	40.7%	8.2%	-14%	-20%	-17.5%	activation at 0.03 mg ([1]; dose 30.0 ug): 30.7%; dead animals (ICR mouse): no dead animal was found; activation at 0.003 mg [2, 3]: 2.3%; activation at 0.03 mg ([2]; Canis lupus familiaris, dose 30.0 ug, read-out: change of sinus rate (%)): 5.6%
Cc1cn(-c2ccc3c(c2)CSC(=S)N3)cn1 [6-(4-methylimidazol-1-yl)-(4H)-3,1-benzothiazine-2-thione]			0%	3.7%	0%	4%	4%	4%	2.1%	18.5%	0%	0%	-4%	-3%	3.6%	40.7%	1.2%	-4.7%	-14%	-10%	dead animals (BALB/C mice): no dead animal was found
